Results published in patent US20260306460A1, “COMPOSITION FOR REMOVING AND INHIBITING SENESCENT CELLS, AND USES THEREOF” (LIFECEUTIX CO., LTD., priority 2023, published 2026).
Values joined by “and” are separate entries in the source; they are usually repeats but may differ in a detail not shown here. Equal entries are not always repeated.

Columns and labels:
[1] = tested on: HMGN1 secreted from senescent A549 cells; assay: HMGN1 secretion (ELISA) from senescent A549 cancer cells, Example 12; format: cell-based, human; settings: senescent untreated = 100%; 30 μM; 90 μM for LX-305, 905, 1302, 1601, 1603, 2003, 2702, 2901, 3106; 270 μM for LX-1103, 2005, 2007;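 further: A549 cells made senescent by doxorubicin exposure, with DMSO-treated cells serving as the non-senescent control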
Experimental: Cells were treated with doxorubicin or control (DMSO) and cultured.

senescent foreskin cells = assay: Survival of senescent human cells treated with supernatant (secreted fluid) from death-induced cells, Example 13; format: cell-based; settings: senescent treated cells; for viability at 30 µM: Homo sapiens, 72 h
[2] = tested on: naturally aged C57BL6J mice; assay: Skin aging (dermal thickness, COL1A1 and SDF1 mRNA, hair loss) in naturally aged mice, Example 21-10, Table 25; format: in vivo, mouse; settings: for Dermal Thickness (μm): mouse, in vivo
Experimental: (§1) 22-month-old female C57BL6J mice (KRIBB Laboratory Animal Resource Center) were acclimated to the experimental environment for one week, after which the aged mice were randomly assigned to experimental and control groups. Eight-week-old, non-aged mice served as controls. LX-403 was mixed in a 10% ethanol solution of PEG400 and administered orally at a concentration of 25 mg/kg daily for 21 days, or administered to the skin, joints, or eyes at a concentration of 1 μM. LX-1801 was mixed in distilled water with 4% DMSO, 30% PEG300, and 5% Tween80 and administered to the skin, joints, or eyes at a concentration of 0.4 μM daily for 21 days. LX-2001 was mixed in PBS and administered to the skin, joints, or eyes at a concentration of […] daily for 21 days. LX-2002 was mixed in distilled water with 4% DMSO, 30% PEG300, and 5% Tween80 and administered to the skin, joints, or eyes at a concentration of 2 μM daily for 21 days. […] LX-2005 was mixed in distilled water with 4% DMSO, 30% PEG300, and 5% Tween80 and administered to the skin, joints, or eyes at a concentration of 90 μM daily for 21 days. LX-2007 was mixed in distilled water with 4% DMSO, 30% PEG300, and 5% Tween80 and administered to the skin, joints, or eyes at a concentration of 90 μM daily for 21 days. […] LX-3002 was mixed in distilled water with 4% DMSO, 30% PEG300, and 5% Tween80 and administered orally at a concentration of 10 mg/kg daily for 21 days. […] LX-5411 was mixed in 5% PBS and administered orally at a concentration of 10 mg/kg daily for 21 days or administered to the skin, joints, or eyes at a concentration of 3 μM. LX-5701 was mixed in PBS and administered orally at a concentration of 360 mg/kg daily for 21 days. LX-6807 was mixed in saline and administered intraperitoneally at a concentration of 1 mg/kg daily for 21 days. LX-2101 or LX-2102 was mixed in PBS solution with 5% DMSO and administered intraperitoneally at a concentration of 20 mg/kg or 10 mg/kg, respectively, daily for 21 days. The control group received only the solution in the same volume. After the end of drug administration, the methods described in each example below were performed.
Frozen sections of skin tissue were stained with Hematoxylin/Eosin (H/E), and the dermal thickness was observed under an optical microscope. Furthermore, the mRNA levels of collagen (COL1A1), a skin component, and SDF1, which suppresses age-related pigmentation, were measured using qRT-PCR as described in Example 7-2 of WO2023-085787 A1. […] Furthermore, biweekly examinations were performed to assess the onset of hair loss due to aging.

[3] = tested on: naturally aged C57BL6J mice; assay: Hot plate joint pain test in naturally aged mice, Example 21-12, Table 27; format: in vivo, mouse; settings: hot plate 55° C., untreated aged 6.9 (±1.8)
Experimental: as §1
RNA was extracted from joint tissue as described in Example 7-2 of WO2023-085787 A1, and qRT-PCR was performed using the synthesized cDNA. […] To analyze joint pain due to joint aging, hotplate analysis was performed. Specifically, thermal pain thresholds were measured using a hot plate. After acclimating mice to a temperature of 30° C. for 10 minutes, the time required for hind paw licking or jumping responses to occur at 55° C. was measured. To prevent tissue damage, the response was measured for less than 30 seconds, and the average value was used from five measurements.

[4] = tested on: bleomycin-induced scleroderma C57BL6J mice; assay: Bleomycin scleroderma in mice (p16, COL1A1 mRNA, dermal thickness), Example 24-2, Table 48; format: in vivo, mouse; settings: daily for 21 days; for p16 mRNA: untreated 100 (±8.8); for Col1a1 mRNA: untreated 100 (±13.2); for Dermal Thickness: untreated 459 (±38.7)
Experimental: Eight-week-old male C57BL6J mice (KRIBB Laboratory Animal Resource Center) were acclimated to the experimental environment for one week. Then, 100 μl of the anticancer drug bleomyxin (1 mg/ml) was administered subcutaneously every other day to induce scleroderma for more than three weeks. Mice with scleroderma were randomly assigned to experimental and control groups. LX-403 was mixed with a 10% ethanol solution of PEG400 and administered orally at a concentration of 25 mg/kg daily for 21 days or administered directly to the skin at a concentration of 1 μM. LX-1801 was mixed with a solution of 4% DMSO, 30% PEG300, and 5% Tween80 in distilled water and administered subcutaneously at a concentration of 0.4 μM daily for 21 days. LX-2001 was mixed in PBS and administered intradermally at a concentration of 2 μM daily for 21 days. LX-2002 was mixed in distilled water with 4% DMSO, 30% PEG300, and 5% Tween80 and administered intradermally at a concentration of 2 μM daily for 21 days. […] LX-2005 was mixed in distilled water with 4% DMSO, 30% PEG300, and 5% Tween80 and administered intradermally at a concentration of 90 μM daily for 21 days. LX-2007 was mixed in distilled water with 4% DMSO, 30% PEG300, and 5% Tween80 and administered intradermally at a concentration of 90 μM daily for 21 days. […] LX-3002 was mixed with distilled water with 4% DMSO, 30% PEG300, 5% tween80 and administered orally at 10 mg/kg daily for 21 days. […] LX-5411 was mixed with 5% PBS and administered orally at 10 mg/kg daily for 21 days or subcutaneously at 3 μM. LX-5701 was mixed with PBS and administered orally at 360 mg/kg daily for 21 days. LX-6807 was mixed in saline and administered intraperitoneally at a concentration of 1 mg/kg daily for 21 days. The control group was administered only the solution in the same volume. After the end of drug administration, mice were sacrificed in the same manner as in Example 7-2 of WO2023-085787 A1, RNA was extracted from skin tissue, and the synthesized cDNA was used to perform and analyze the mRNA amounts of p16 and collagen (COL1A1) by qRT-PCR (quantitative real-time PCR). In addition, to measure the degree of bleomycin-induced skin hardening, skin frozen sections were stained with H/E (Hematoxylin/Eosin), and the thickness of the dermis was observed under an optical microscope.

[5] = tested on: NaIO3-induced retinal degenerative C57BL6J mice; assay: NaIO3 retinal degeneration in mice (p16 mRNA, outer nuclear layer thickness), Example 29, Table 53; format: in vivo, mouse; settings: daily for 21 days; for Outer nuclear layer thickness: untreated 27.4 (±1.3); for p16 mRNA: untreated 100%
Experimental: Then, retinal degenerative diseases were induced for more than 7 days by intravenous administration of 20 mg/kg of NaIO3, an oxidizing agent that induces retinal pigment epithelial cell death and retinal degeneration. Mice with retinal degenerative diseases were randomly assigned to experimental and control groups. […] The control group received only the solution in the same volume. […] In addition, frozen sections of the other eye tissue were stained with H/E (Hematoxylin/Eosin), and the thickness of the outer nuclear layer (ORL) was observed under an optical microscope. […] The mRNA amount after aging induction was calculated as 100% and compared with the mRNA amount of p16 after treatment with the test compound.

[6] = Table 8, supernatant from dying senescent cells treated at 30, 90 or 270 μM (as Example 11)
[7] = naturally aged mice, untreated aged = 100
[8] = skin, naturally aged mice, untreated aged = 1

Compound	HMGN1 [1]	Survival (senescent foreskin cells; [6])	Dermal Thickness (μm) [2]	Relative area of hair loss (%) [2, 7]	Col1a1 mRNA (Fold) [2, 8]	SDF1 mRNA (fold) [2, 8]	Response time (s) [3]	p16 mRNA [4]	Col1a1 mRNA [4]	Dermal Thickness [4]	Outer nuclear layer thickness [5]	p16 mRNA [5]	viability at 30 µM (senescent foreskin cells; supernatant from death-induced proliferating cells, 3 days)	viability at 30 µM (senescent foreskin cells; supernatant from death-induced senescent cells, 3 days)	Survival (senescent foreskin cells; supernatant from No Cells, 3 days)	Col1a1 mRNA (Fold) ([2]; topical)	Relative area of hair loss (%) ([2]; topical)	SDF1 mRNA (fold) ([2]; topical)
O=C(C(C[N+](=O)[O-])=NO)N1CCN(C(c2ccc(Cl)cc2)c2ccc(Cl)cc2)CC1 [LX-403]	320%	45.1	232 (±16.2) μm	69 (±2.5) %	2.4 (±0.2) Fold	1.8 (±0.1) fold	5.6 (±0.7) s	34.7 (±4.1) %	45.7 (±4.5) %	356 (±36.3) μm	40.1 (±1.9) μm	34 (±2.2) %						
COC(=O)c1ccc([C@H]2c3[nH]c4ccccc4c3C[C@H](C(=O)OC)N2C(=O)CCl)cc1 [LX-405]	310%												41.3%	52.7%	102.8 (±4.6) %			
S=C(N/N=C1\CCCc2cccnc21)N1CCN(c2ccccn2)CC1 [LX-801]	329%	52.7																
CC1(C)CC[C@]2(NC(=O)C(C)(F)F)CC[C@]3(C)[C@H](C(=O)C=C4[C@@]5(C)C=C(C#N)C(=O)C(C)(C)[C@@H]5CC[C@]43C)[C@@H]2C1 [LX-2101, Omaveloxolone]	297%	39.7	224 (±11.1) μm and 251 (±15.1) μm	82 (±8.9) %	2.5 (±0.2) Fold	1.4 (±0.3) fold	5.1 (±0.4) s				29.4 (±7.5) μm and 39 (±4.1) μm	80 (±2.7) % and 67 (±7.0) %				2.2 (±0.2) Fold	79 (±4.1) %	1.9 (±0.3) fold
COC(=O)[C@]12CCC(C)(C)C[C@H]1[C@H]1C(=O)C=C3[C@@]4(C)C=C(C#N)C(=O)C(C)(C)[C@@H]4CC[C@@]3(C)[C@]1(C)CC2 [LX-2102, Bardoxolone methyl]	233%	46.3	234 (±9.6) μm													2.0 (±0.2) Fold	89 (±7.5) %	1.3 (±0.1) fold
CCCC\C=C/C=C/C=C\CCCCCCCC(=O)O [LX-2707, Punicic acid]			237 (±19.4) μm				5.4 (±0.6) s	67.5 (±4.7) %	64.1 (±2.0) %	389 (±23.6) μm	31.8 (±1.7) μm	76 (±5.4) %						
COC(=O)[C@H]1Cc2c([nH]c3ccccc23)[C@H](c2ccc(S(C)(=O)=O)cc2)N1C(=O)CCl [LX-5401, methyl (1S,3R)-2-(2-chloroacetyl)-1-(4-(methylsulfonyl)phenyl)-2,3,4,9-tetrahydro-1H-pyrido[3,4-b]indole-3-carboxylate]			222 (±26.3) μm				5.9 (±0.2) s	61.2 (±6.7) %	74.6 (±2.4) %	401 (±46.3) μm								
C#CC(=O)N1[C@@H](CCCC)Cc2cc(OC)ccc2[C@@H]1c1ccc(NC23CC4CC(CC(C4)C2)C3)cc1 [LX-5411]			231 (±27.1) μm	64 (±4.8) %	2.7 (±0.1) Fold	2.3 (±0.2) fold	4.7 (±0.4) s	43.8 (±3.0) %	55.3 (±1.6) %	376 (±47.1) μm	43.7 (±4.2) μm	43 (±2.5) %						
O=C1C2CCN(CC2)C1CNC(=O)C(F)(F)F (stereo not drawn) [LX-5701]			239 (±16.4) μm	71 (±8.4) %	1.9 (±0.1) Fold	1.7 (±0.3) fold	4.6 (±1.3) s	64 (±9.4) %	59.7 (±17.3) %	358 (±21.4) μm	52.7 (±3.2) μm	67 (±7.3) %						
Cc1cccc([C@H](C)c2cnc[nH]2)c1C [LX-6807, Dexmedetomidine]			267 (±22.4) μm	72 (±3.8) %	3.2 (±0.2) Fold	2.1 (±0.2) fold	4.8 (±0.4) s	64.7 (±3.5) %	37.6 (±2.5) %	315 (±29.8) μm	50.8 (±3.2) μm	64 (±4.4) %						
